Assay type in all cases: cell-based, Staphylococcus aureus
In test [1] the test system is S. aureus. The test can be described thus: Modified MTT assay of cellular respiration. The note with it: HBSS, Cl− free HBSS or Na+ free HBSS buffer, 5 h treatment. The text has this:
To further probe the relationship between anion homeostasis and antimicrobial effect, a modified MTT assay was used next to monitor disruption of cellular respiration in the presence of 1, 2, or 4 either with abundant Cl^− and Na^+, in the absence of Cl^−, or in the absence of Na^+ (Fig. 3). […] Chew and co-workers have reported on the behaviours, and dynamics of adamantylamines in the lipid bilayers, and discussed that adamantylamines show a preferential accumulation in the interfacial layer of lipid bilayers[46] and thus we suspected that these compounds, with an identical pharmacophore may behave in a similar manner accumulating in lipid bilayers of bacterial membranes.[47,48] […]
or measured over the course of 2 hrs, starting at T0 (upon addition of compound).
Alternatively, 200 µL aliquots of cell suspension were added to a 96-well plate, to the desired quantity, and were either untreated (control), or treated with the compound of interest for 5 mins, whereafter fluorescence was read using a BMG Labtech Clariostar Plus platereader, and plotted relative to control.
From an overnight culture of S. aureus brought to stationary phase (OD600 = ~1.0), was taken samples which were diluted to an OD600 = ~0.2 in either Hank’s buffered salt solution, Cl- free HBSS buffer, or Na+ free buffer. Samples were treated with the respective compound for 5 h at 37 0C. Subsequently, Cell densities for each of the samples were standardised to an OD600 = 0.15, in the relevant buffer system. To each sample was added Triphenyl Tetrazolium Chloride (TTC), to a final concentration of 0.5 mg/mL. 100 µL of each sample was placed into the wells of a 96-well place in 8 replicates. Samples were incubated at 37 0C for 18 h, and subsequently supernatant was removed from each well, taking care as to not disturb the Formazan precipitate. To each well was then added 100 µL DMSO, with repeated pipetting to solubilise precipitate. Samples were read using a microplate reader at 550 nm & plotted as percentage cell viability relative to control. […]

The test system of the next test is S. aureus cells. The test can be described thus: Propidium iodide membrane integrity assay. The note with it: for propidium iodide fluorescence vs basal (emission around 615 nm): two hours of treatment, various concentrations. An excerpt:
To study whether compounds 1, 2, and 4 do indeed accumulate in the membrane, and yield a depolarising effect, or compromise its integrity we utilised propidium iodide (PI), a red-emissive (λmax(em) = 617 nm) cell-impermeable fluorophore. PI undergoes a fluorescence increase upon internalisation and DNA intercalation, and thus under ordinary circumstances PI fluorescence is quenched, but if membrane integrity is compromised, a fluorescence “turn-on” occurs. After two hours of treatment with 1, 2, and 4, PI fluorescence was compared to basal fluorescence from the fluorophore. […] This clear membrane depolarising effect was less obvious for 4, and follows the trend of the observed transport, and toxicity results. However, it is of note that each compound can effectively promote an influx of PI through membrane depolarisation.
To further investigate the rate of this phenomenon, PI fluorescence was monitored as a function of time, upon treatment of S. aureus with 1 at a concentration of 50 μM (Fig. 4B).
1 mL aliquots of S. aureus cultures brought to early stationary phase overnight were brought to an OD600 = 0.2 and 100 µL of this suspension was added to 96 well plates, whereafter 100 µL of PBS containing; no compound (- control), or compound (2x desired concentration) was added to the suspension. The resultant mixture was incubated at 37 °C for 2 hr whereafter fluorescence intensity from PI (DNA bound form) was quanitified (λ exc/em = 535/615 nm) using a Clariostar plate reader. In the case of time course experiments, Measurement cycles were set for two hours, following addition of the respective compound (T0). Fluorescence was subsequently plotted as F/F0. […]
Statistical analysis of biological data: All biological experiments were carried out in triplicate, making use of cells of differing origins, on three independent occasions. With experiments concerning the use of 96-well plates, all experiments were carried out as three biological replicates of eight technical replicates. All data is presented as the mean + SEM of each replicate, unless specified otherwise. All statistical analysis and significance determination was carried out using the Graphpad Prism 8.0.1 software package.

Test [2] concerns S. aureus. As to the kind of experiment: DNA release luminescence assay with Ru(phen)2(dppz)Cl2. The note with it: 100 μM, 1 h, vs untreated control. As for the experimental part: In addition to assays monitoring the uptake of PI, luminescence assays to monitor the release of cellular components such as DNA/RNA were also undertaken. Using Ru(phen)2(dppz)Cl2, which acts as a highly sensitive, “off-to-on” emissive probe for nucleic acids (NA),[49–51] we assessed the levels of NA release from cells upon treatment with 1, 2, and 4 (100 μM) by comparing emission intensity of the complex in the absence of nucleic acids, to untreated controls, and treated samples (Fig. 4C). When Ru(phen)2(dppz)Cl2 was added to sterile nutrient broth, which lacks nucleic acids, emission from the ^3MLCT band (ca. 620 nm) is highly quenched, however, when added to culture supernatant in the absence of treatment with 1, 2, or 4 we see a large increase in ^3MLCT derived luminescence indicating the presence of nucleic acids in the solution. This initial luminescence increase is unsurprising, as S. aureus is known to release DNA under active growth conditions, in the form of eDNA,[52] which acts as a chemical messenger for microbial species.[53] […] This additional increase in luminescence indicates a heightened level of extracellular NA and may be another indication of membrane disruption. […] Indeed, a significant increase in luminescence would not be expected, as the release of large architectures such as those observed for nucleic acids is slow, due to the bulk of the biomolecules.
1 mL aliquots of S. aureus cultures brought to early stationary phase overnight were brought to an OD600 = 0.2 and 100 µL of this suspension was added to 96 well plates, whereafter 100 µL of PBS containing; no compound (- control), or compound (2x desired concentration) was added to the suspension. The resultant mixture was incubated at 37 °C for 2 hr whereafter fluorescence intensity from PI (DNA bound form) was quanitified (λ exc/em = 535/615 nm) using a Clariostar plate reader. In the case of time course experiments, Measurement cycles were set for two hours, following addition of the respective compound (T0). Fluorescence was subsequently plotted as F/F0.
DNA release luminescence assay […]

The values below come from article PMC11788822, “Uncovering the potent antimicrobial activity of squaramide based anionophores – chloride transport and membrane disruption” (Chemical Science, 2025).

For the compound `O=c1c(Nc2ccc([N+](=O)[O-])cc2)c(NC23CC4CC(CC(C4)C2)C3)c1=O` [Compound 4], the “effect on cellular respiration (MTT)” value with S. aureus [1] was “concentration dependent decrease in cellular respiration”. In the test with S. aureus cells, the “propidium iodide fluorescence vs basal (emission around 615 nm)” value (“propidium iodide fluorescence vs basal” for short) is recorded as “less obvious”. For the same compound, in the test with S. aureus [2], the “Ru(phen)2(dppz)Cl2 luminescence in culture supernatant (nucleic acid release)” value (“Ru(phen)2(dppz)Cl2 luminescence” for short) is reported as “further increased”.
On to `O=c1c(Nc2cc(C(F)(F)F)cc(C(F)(F)F)c2)c(NC23CC4CC(CC(C4)C2)C3)c1=O` [Compound 1], for which the “effect on cellular respiration (MTT)” value in the test with S. aureus [1] is reported as “concentration dependent decrease in cellular respiration”. Moreover, the “propidium iodide fluorescence as a function of time” value in the test with S. aureus cells (50 μM, over two hours) is recorded as “increase in the fluorescence of PI”. Also, the “propidium iodide fluorescence vs basal” value in the test with S. aureus cells is recorded as “greatly increased”. In addition, the “Ru(phen)2(dppz)Cl2 luminescence” value in the test on S. aureus [2] is reported as “further increased”.
`O=c1c(Nc2ccc(Cl)c(Cl)c2)c(NC23CC4CC(CC(C4)C2)C3)c1=O` [Compound 2]: the “effect on cellular respiration (MTT)” value in the test on S. aureus [1] is “concentration dependent decrease in cellular respiration”. Besides, the “propidium iodide fluorescence vs basal” value in the test with S. aureus cells was “greatly increased”. In addition, the “Ru(phen)2(dppz)Cl2 luminescence” value in the test with S. aureus [2] is “further increased”.
